Measured values published in PubChem BioAssay AID1963973 (Molecular Pharmacology Branch, DTP, NCI, 2024).

Test system: 883617-216-R-J1-PDC tumor spheroids, viability
Test: Anticancer human tumor 883617-216-R-J1-PDC patient-derived bladder carcinoma cell line growth inhibition [PI3K]
Conditions: spheroids with HUVEC and MSC; for IC50: curve of first compound; for viability, T/C: stronger effect = lower value
Source text: Combinatorial screen of targeted agents with the PI3K inhibitors inavolisib, alpelisib, duvelisib, and copanlisib in multi-cell type tumor spheroids
A high-throughput screen of multi-cell type tumor spheroids was designed to identify active combinations of targeted small molecules and PI3K pathway inhibitors. Complex spheroids include a stromal component modeled by human endothelial cells (HUVEC) and fibroblasts modeled by human mesenchymal stem cells (MSCs). The concentration ranges selected for each drug and investigational agent were based upon clinically achievable concentrations if the clinical Cmax of the agent was known.
Compounds. The drugs and investigational agents: inavolisib (NSC800729), alpelisib (NSC765974), duvelisib (NSC772469), copanlisib (NSC816437), ipatasertib (NSC767898), afuresertib (NSC778305), talazoparib (NSC767125), sapanisertib (NSC764658), selumetinib (NSC741078), tovorafenib (DAY101, NSC766906), vemurafenib (NSC761431), ravoxertinib (NSC781343), sotorasib (NSC818433), MRTX1133 (NSC 836407), abemaciclib (NSC 768073), palbociclib (NSC758247), venetoclax (NSC 766270), SY5609 (NSC837396), enzalutamide (NSC755605), and darolutamide (NSC825331), were obtained from the National Cancer Institute (NCI) Developmental Therapeutics Program Chemical Repository. The FDA-approved anticancer drug set is available from the NCI Developmental Therapeutics Program. […] The stock solutions were prepared in dimethyl sulfoxide (DMSO, Sigma-Aldrich, St. Louis, MO, cat. D2650) at 800-fold the tested concentration and stored at -70 degrees C prior to their use. All drugs and investigational agents were tested over a range starting from a high concentration at or near the clinical Cmax and decreasing in half-log increments. If the clinical Cmax for an agent had not been determined, the highest concentration tested was 10 microM.
Cell Culture. All cells were maintained in an incubator at 37 degrees C and 5% CO2 with 95% humidity. The PDC lines were cultured according to standard operating procedures established by the NCI PDMR (https://pdmr.cancer.gov/sops/default.htm). All PDCs were thawed and cultured in Matrigel-coated flasks prepared with a working solution of 1X Ham's F-12 nutrient mix, without supplementation (Invitrogen, Waltham, MA, cat. 11765054), 100 U/mL penicillin-streptomycin (Invitrogen, cat. 15140122), and 2.5% Matrigel (Corning Inc., Corning, NY, cat. 354248) for the first three passages. The 354836-022-R-J1-PDC, 475296-252-R-J1-PDC, and 997726-040-R-J2-PDC lines were cultured in 6A media, which includes advanced DMEM/F-12 (Thermo Fisher Scientific, cat. 12634028), 10 mM HEPES (Thermo Fisher Scientific, cat. 15630080), 1X GlutaMAX supplement (Thermo Fisher Scientific, cat. 35050061), 0.1 mg/mL primocin (InvivoGen, San Diego, CA, cat. ant-pm-2), 10% defined fetal bovine serum, heat inactivated (HyClone Laboratories Inc., Logan, UT, cat. SH30070.03HI), 50% L-WRN conditioned media (ATCC, cat. CRL-3276), 1.25 mM N-Acetyl-L-cysteine (Sigma-Aldrich, cat. A9165), 10 mM nicotinamide (Sigma-Aldrich, cat. N0636), 1X B-27 supplement (Thermo Fisher Scientific, cat. 17504044), 1X N-2 supplement (Thermo Fisher Scientific, cat. 17502048), and 10 microM Y-27632 dihydrochloride (Tocris Bioscience, Bristol, United Kingdom, cat. 1254). The 624824-186-R-J2-PDC line was cultured in 6C/Colon 1B media, which includes all 6A media components plus 50 ng/mL human EGF recombinant protein (Thermo Fisher Scientific, cat. PHG0311). […]
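Note: spheroids exposed to agents for 7 days before the viability read.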

Cn1cnc2c(F)c(Nc3ccc(Br)cc3Cl)c(C(=O)NOCCO)cc21 + CC(Nc1ccc2c(c1)OCCn1cc(N3C(=O)OCC3C(F)F)nc1-2)C(N)=O
IC50 (second compound 0.00316 µM): 40.6 nM
IC50 (second compound 0.01 µM): 34.9 nM
IC50 (second compound 0.0316 µM): 10.3 nM
IC50 (second compound 0.1 µM): 13.4 nM
IC50 (second compound 0.316 µM): < 9.49 nM
IC50 (second compound 1 µM): < 9.49 nM
viability, T/C (second compound 0.00316 µM, first compound 0.00949 µM): 64.5%
viability, T/C (second compound 0.00316 µM, first compound 0.03 µM): 57.4%
viability, T/C (second compound 0.00316 µM, first compound 0.0949 µM): 35.1%
viability, T/C (second compound 0.00316 µM, first compound 0.3 µM): 35.3%
viability, T/C (second compound 0.00316 µM, first compound 0.949 µM): 26.5%
viability, T/C (second compound 0.00316 µM, first compound 3 µM): 19.6%
viability, T/C (second compound 0.01 µM, first compound 0.00949 µM): 62.9%
viability, T/C (second compound 0.01 µM, first compound 0.03 µM): 47.3%
viability, T/C (second compound 0.01 µM, first compound 0.0949 µM): 45.9%
viability, T/C (second compound 0.01 µM, first compound 0.3 µM): 30.6%
viability, T/C (second compound 0.01 µM, first compound 0.949 µM): 26.8%
viability, T/C (second compound 0.01 µM, first compound 3 µM): 19.4%
viability, T/C (second compound 0.0316 µM, first compound 0.00949 µM): 51.8%
viability, T/C (second compound 0.0316 µM, first compound 0.03 µM): 36%
viability, T/C (second compound 0.0316 µM, first compound 0.0949 µM): 25%
viability, T/C (second compound 0.0316 µM, first compound 0.3 µM): 25.2%
viability, T/C (second compound 0.0316 µM, first compound 0.949 µM): 20.1%
viability, T/C (second compound 0.0316 µM, first compound 3 µM): 14.2%
viability, T/C (second compound 0.1 µM, first compound 0.00949 µM): 61.2%
viability, T/C (second compound 0.1 µM, first compound 0.03 µM): 21.9%
viability, T/C (second compound 0.1 µM, first compound 0.0949 µM): 23.4%
viability, T/C (second compound 0.1 µM, first compound 0.3 µM): 18%
viability, T/C (second compound 0.1 µM, first compound 0.949 µM): 16.7%
viability, T/C (second compound 0.1 µM, first compound 3 µM): 7.35%
viability, T/C (second compound 0.316 µM, first compound 0.00949 µM): 22.1%
viability, T/C (second compound 0.316 µM, first compound 0.03 µM): 16.2%
viability, T/C (second compound 0.316 µM, first compound 0.0949 µM): 10.5%
viability, T/C (second compound 0.316 µM, first compound 0.3 µM): 11.5%
viability, T/C (second compound 0.316 µM, first compound 0.949 µM): 8.13%
viability, T/C (second compound 0.316 µM, first compound 3 µM): 4.48%
viability, T/C (second compound 1 µM, first compound 0.00949 µM): 13.3%
viability, T/C (second compound 1 µM, first compound 0.03 µM): 9.92%
viability, T/C (second compound 1 µM, first compound 0.0949 µM): 7.16%
viability, T/C (second compound 1 µM, first compound 0.3 µM): 7.46%
viability, T/C (second compound 1 µM, first compound 0.949 µM): 6.08%
viability, T/C (second compound 1 µM, first compound 3 µM): 3.09%
